# According to patent US20110124666A1, “3,4-DIHYDROPYRIMIDINE TRPA1 ANTAGONISTS” (Janssen Pharmaceutica NV a corporation, priority 2008, published 2011):
# Target: T1, hTRPA1 (Homo sapiens, UniProt O75762)
# T1 construct: expressed in transfected cells
# Experiment: Ca2+ fluorometry TRPA1 antagonism in hTRPA1/TREx-HEK293 cells (FDSS)
# Format: cell-based
# Settings: 11H-dibenzo[b,e]azepine-10-carboxylic acid methyl ester as TRPA1 agonist (25 nM), hTRPA1-HEK cells, Fluo4-AM
# Excerpt: The Human TRPA1 gene was cloned into the pT-REx-Dest30 inducible vector and afterwards stably transfected in T-Rex^TM-293 cells (purchased from Invitrogen, Merelbeke, Belgium). This tetracyclin inducible hTRPA1 expression system was used in order to prevent Ca^2+ overload in the cultured cells due to sustained TRPA1 expression. hTRPAl/TREx-HEK293 cells (referred to as hTRPA1 cells in the following text) were maintained under standard sterile cell culture conditions.
# Binding of an agonist to the TRPA1 ion-channel activates and opens the ion-channel which causes a robust increase in intracellular Ca^2+ concentration. For detecting and measuring intracellular Ca^2+ concentration, cells were loaded with a Ca^2+-sensitive dye. Changes in fluorescence in the cell, that correspond to changes in Ca^2+ concentration in the cell, can kinetically be monitored with the FDSS instrument (Hamamatsu) and are indicative for agonism towards the TRPA1 ion channel and this can be reduced by TRPA1-receptor antagonists.
# The cells were seeded in poly-D-lysine-coated 384-well round bottom polypropylene plates (Costar Corning, Data Packaging, Cambridge Mass., USA) at 12000 cells/well. 50 ng/ml tetracycline was added to induce the hTRPA1 expression 24 h before the experiment.
# The cells were loaded with 5 mg/l Fluo4-AM (Molecular Probes, Invitrogen, Merelbeke, Belgium) dissolved in HBSS seeding medium supplemented with 0.7 g/l Probenecid (Sigma) and incubated for 1 h at 37° C. and subsequently at 20° C. for 1 to 2 h. The fluorescence was measured in the FDSS 6000 imaging based plate reader (Hamamutsu Photonics K.K., Hamamutsu City, Japan). The excitation wavelength was 488 nm and the emission wavelength 540 nm. After a control period of 12 seconds the JNJ compounds were added and the Ca^2+ signal was measured within 14 minutes after application. Finally, the control TRPA1 agonist 11H-dibenzo[b,e]azepine-10-carboxylic acid methyl ester [the synthesis of which is hereafter described as compound (D-6)] or BITC (benzylisothiocyanate, FLUKA) was added at a final concentration of 25 nM. […] The emission ratio was calculated by dividing the emission signal (Em540) by the first Em540 signal of the control period to compensate for the background fluorescence. On every 384 well plate 4 series of DMSO control experiments were performed of which 2 with and 2 without control agonist 11H-dibenzo[b,e]azepine-10-carboxylic acid methyl ester or BITC. For intracellular Ca^2+ measurements compound stock solutions (10 or 100 mM) were further diluted in DMSO in order to obtain finally 1% DMSO in the extracellular solution.
# T1 sequence (O75762 whole entry): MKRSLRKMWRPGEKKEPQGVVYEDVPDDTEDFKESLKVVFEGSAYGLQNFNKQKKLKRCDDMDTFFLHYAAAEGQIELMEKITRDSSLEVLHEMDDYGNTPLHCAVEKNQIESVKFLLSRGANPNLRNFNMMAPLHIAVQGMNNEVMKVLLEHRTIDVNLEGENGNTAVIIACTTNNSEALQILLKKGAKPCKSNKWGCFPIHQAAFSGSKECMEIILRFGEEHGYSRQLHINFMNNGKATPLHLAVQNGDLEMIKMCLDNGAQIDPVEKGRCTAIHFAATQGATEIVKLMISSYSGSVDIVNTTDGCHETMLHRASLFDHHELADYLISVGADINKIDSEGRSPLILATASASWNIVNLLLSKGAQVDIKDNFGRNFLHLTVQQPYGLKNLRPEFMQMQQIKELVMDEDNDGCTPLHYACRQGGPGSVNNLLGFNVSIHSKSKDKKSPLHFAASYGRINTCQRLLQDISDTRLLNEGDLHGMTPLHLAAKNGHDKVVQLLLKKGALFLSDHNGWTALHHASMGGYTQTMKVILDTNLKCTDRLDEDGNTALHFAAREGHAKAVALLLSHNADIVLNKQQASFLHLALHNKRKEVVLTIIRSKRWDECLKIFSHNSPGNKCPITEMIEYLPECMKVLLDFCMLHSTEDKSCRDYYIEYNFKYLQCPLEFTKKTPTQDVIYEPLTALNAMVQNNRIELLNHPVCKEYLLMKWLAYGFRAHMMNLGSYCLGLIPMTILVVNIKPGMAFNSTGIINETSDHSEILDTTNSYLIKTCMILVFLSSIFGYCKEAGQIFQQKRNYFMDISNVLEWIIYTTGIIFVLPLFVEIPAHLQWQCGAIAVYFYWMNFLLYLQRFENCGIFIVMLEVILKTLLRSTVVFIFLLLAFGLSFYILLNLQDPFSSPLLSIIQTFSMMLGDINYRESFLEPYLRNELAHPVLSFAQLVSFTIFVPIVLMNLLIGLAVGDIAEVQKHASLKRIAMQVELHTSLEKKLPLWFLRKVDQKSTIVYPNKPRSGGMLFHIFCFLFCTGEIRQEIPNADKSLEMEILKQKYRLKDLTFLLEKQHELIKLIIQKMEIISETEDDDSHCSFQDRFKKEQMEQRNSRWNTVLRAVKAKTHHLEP
row,SMILES,IC50 [nM]
1,COc1cccc(C2NC(=S)NC3=C2C(=O)c2ccccc23)c1 (stereo not shown) [compound 1],~128
2,COc1cccc([C@H]2NC(=S)NC3=C2C(=O)c2ccccc23)c1 [compound 2],~76
3,COc1cccc([C@@H]2NC(=S)NC3=C2C(=O)c2ccccc23)c1 [compound 3],> 10000
4,COc1cccc(C2NC(=O)N(Cc3ccccc3)C3=C2C(=O)c2ccccc23)c1 (stereo not shown) [compound 4],~6030
5,COc1cc(OC)cc(C2NC(=S)NC3=C2C(=O)c2ccccc23)c1 (stereo not shown) [compound 5],~2780
6,O=C1C2=C(NC(=S)NC2c2cccc(O)c2)c2ccccc21 (stereo not shown) [compound 6],~636
7,COCCCOc1cccc(C2NC(=S)NC3=C2C(=O)c2ccccc23)c1 (stereo not shown) [compound 7],47
8,O=C1C2=C(NC(=S)NC2c2cccc(F)c2)c2ccccc21 (stereo not shown) [compound 8],~1060
9,COc1cccc(C2NC(=S)NC3=C2C(=O)c2ccccc23)c1OC (stereo not shown) [compound 9],> 10000
10,COc1ccc(F)c(C2NC(=S)NC3=C2C(=O)c2ccccc23)c1 (stereo not shown) [compound 10],~365
11,O=C1C2=C(NC(=S)NC2c2cccc(Br)c2)c2ccccc21 (stereo not shown) [compound 11],495
12,O=C1C2=C(NC(=S)NC2c2cccc3c2OCO3)c2ccccc21 (stereo not shown) [compound 12],~4410
13,O=C1C2=C(NC(=S)NC2c2cccc(OCCO)c2)c2ccccc21 (stereo not shown) [compound 13],213
14,O=C1C2=C(NC(=S)NC2c2cccc(CO)c2)c2ccccc21 (stereo not shown) [compound 14],~708
15,COc1ccc(OC)c(C2NC(=S)NC3=C2C(=O)c2ccccc23)c1 (stereo not shown) [compound 15],> 10000
16,COc1cccc(C2NC(=S)NC3=C2C(=O)c2ccccc23)c1F (stereo not shown) [compound 16],~287
17,COCCCOc1cccc([C@H]2NC(=O)NC3=C2C(=O)c2ccccc23)c1 [compound 18],1320
18,COCCCOc1cccc([C@@H]2NC(=O)NC3=C2C(=O)c2ccccc23)c1 [compound 19],> 10000
19,CCCCOc1cccc(C2NC(=S)NC3=C2C(=O)c2ccccc23)c1 (stereo not shown) [compound 21],314
20,CCN(CC)CCOc1cccc(C2NC(=S)NC3=C2C(=O)c2ccccc23)c1 (stereo not shown) [compound 22],1200
21,O=C1C2=C(NC(=S)NC2c2cccc(OCCCOc3ccc(F)cc3)c2)c2ccccc21 (stereo not shown) [compound 23],4860
22,O=C1C2=C(NC(=S)NC2c2cccc(OCCCCO)c2)c2ccccc21 (stereo not shown) [compound 25],~685
23,CC(=O)OCCCCOc1cccc(C2NC(=S)NC3=C2C(=O)c2ccccc23)c1 (stereo not shown) [compound 26],557
24,COc1cccc(C2C3=C(NC(=S)N2C)c2ccccc2C3=O)c1 (stereo not shown) [compound 27],> 10000
25,COc1cccc(C2NC(=S)N(C)C3=C2C(=O)c2ccccc23)c1 (stereo not shown) [compound 28],~85
26,COCCCOc1cccc([C@H]2NC(=S)NC3=C2C(=O)c2ccccc23)c1 [compound 29],~13
27,COCCCOc1cccc([C@@H]2NC(=S)NC3=C2C(=O)c2ccccc23)c1 [compound 30],> 10000
28,O=C1C2=C(NC(=S)NC2c2cccc(-c3ccc(C(F)(F)F)cc3)c2)c2ccccc21 (stereo not shown) [compound 31],> 10000
29,O=C1C2=C(NC(=S)NC2c2cncc(Br)c2)c2ccccc21 (stereo not shown) [compound 32],1670

# Test system: not given
# Experiment: not given
# Settings: not given
row,SMILES,melting point [°C]
1,O=C1C2=C(NC(=S)NC2c2cncc(Br)c2)c2ccccc21 (stereo not shown),294.61
2,COc1cccc(C2NC(=S)NC3=C2C(=O)c2ccccc23)c1 (stereo not shown) [Co. No. 1],295.22
3,COc1cccc([C@H]2NC(=S)NC3=C2C(=O)c2ccccc23)c1 [Co. No. 2],252.73
4,COc1cccc([C@@H]2NC(=S)NC3=C2C(=O)c2ccccc23)c1 [Co. No. 3],253.6
5,COc1cccc(C2NC(=O)N(Cc3ccccc3)C3=C2C(=O)c2ccccc23)c1 (stereo not shown) [Co. No. 4],188.65
6,COc1cc(OC)cc(C2NC(=S)NC3=C2C(=O)c2ccccc23)c1 (stereo not shown) [Co. No. 5],287.08
7,O=C1C2=C(NC(=S)NC2c2cccc(O)c2)c2ccccc21 (stereo not shown) [Co. No. 6],288.04
8,COc1ccc(F)c(C2NC(=S)NC3=C2C(=O)c2ccccc23)c1 (stereo not shown) [Co. No. 10],289.27
9,O=C1C2=C(NC(=S)NC2c2cccc3c2OCO3)c2ccccc21 (stereo not shown) [Co. No. 12],289.34
10,O=C1C2=C(NC(=S)NC2c2cccc(OCCO)c2)c2ccccc21 (stereo not shown) [Co. No. 13],261.08
11,O=C1C2=C(NC(=S)NC2c2cccc(CO)c2)c2ccccc21 (stereo not shown) [Co. No. 14],265.63
12,COc1ccc(OC)c(C2NC(=S)NC3=C2C(=O)c2ccccc23)c1 (stereo not shown) [Co. No. 15],295.33
13,COc1cccc(C2NC(=S)NC3=C2C(=O)c2ccccc23)c1F (stereo not shown) [Co. No. 16],287.05
14,COCCCOc1cccc([C@H]2NC(=O)NC3=C2C(=O)c2ccccc23)c1 [Co. No. 18],206.47
15,COCCCOc1cccc([C@@H]2NC(=O)NC3=C2C(=O)c2ccccc23)c1 [Co. No. 19],207.44
16,COc1ccc(Oc2cccc(C3NC(=S)NC4=C3C(=O)c3ccccc34)c2)cc1 (stereo not shown) [Co. No. 20],269.04
17,CCN(CC)CCOc1cccc(C2NC(=S)NC3=C2C(=O)c2ccccc23)c1 (stereo not shown) [Co. No. 22],243.58
18,O=C1C2=C(NC(=S)NC2c2cccc(OCCCOc3ccc(F)cc3)c2)c2ccccc21 (stereo not shown) [Co. No. 23],245.01
19,CN(C)CCCOc1cccc(C2NC(=S)NC3=C2C(=O)c2ccccc23)c1 (stereo not shown) [Co. No. 24],237.9
20,O=C1C2=C(NC(=S)NC2c2cccc(OCCCCO)c2)c2ccccc21 (stereo not shown) [Co. No. 25],224.49
21,CC(=O)OCCCCOc1cccc(C2NC(=S)NC3=C2C(=O)c2ccccc23)c1 (stereo not shown) [Co. No. 26],199.5
22,COc1cccc(C2C3=C(NC(=S)N2C)c2ccccc2C3=O)c1 (stereo not shown) [Co. No. 27],286.94
23,O=C1C2=C(NC(=S)NC2c2cccc(-c3ccc(C(F)(F)F)cc3)c2)c2ccccc21 (stereo not shown) [Co. No. 31],149.46
